Data as given in patent US20060211670A1, “Antitumoral18a-homoestra-1,3,5(10)-trien-3yl 2-substituted sulfamates” (priority 2003, published 2006).

Key:
[1] = target: T1, microtubular protein (tubulin) from pig brains (Sus scrofa, UniProt P02550+P02554); assay: Inhibition of tubulin polymerization (turbidimetry at 340 nm); type: biochemical; details: pig brain microtubular protein 1 mg/ml, 0.25 mmol GTP, 37° C.
T1 construct: microtubular protein was purified from pig brains via cydic assembling/disassembling; from tissue; host or cells: pig brain
T1 sequence (P02550 whole entry): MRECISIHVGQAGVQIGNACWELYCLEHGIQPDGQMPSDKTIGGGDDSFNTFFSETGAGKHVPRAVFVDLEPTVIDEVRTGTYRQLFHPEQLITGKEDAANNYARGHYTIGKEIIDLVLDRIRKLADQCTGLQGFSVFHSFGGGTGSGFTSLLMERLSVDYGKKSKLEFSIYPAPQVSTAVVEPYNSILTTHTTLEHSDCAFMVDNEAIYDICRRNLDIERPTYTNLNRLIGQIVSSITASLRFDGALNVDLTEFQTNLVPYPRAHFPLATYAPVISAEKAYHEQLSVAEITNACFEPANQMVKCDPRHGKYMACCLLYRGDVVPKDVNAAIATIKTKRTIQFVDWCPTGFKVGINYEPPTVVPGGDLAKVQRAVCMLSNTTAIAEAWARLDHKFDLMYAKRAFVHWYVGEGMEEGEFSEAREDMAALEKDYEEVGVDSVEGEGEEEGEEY
T1 sequence (P02554 whole entry): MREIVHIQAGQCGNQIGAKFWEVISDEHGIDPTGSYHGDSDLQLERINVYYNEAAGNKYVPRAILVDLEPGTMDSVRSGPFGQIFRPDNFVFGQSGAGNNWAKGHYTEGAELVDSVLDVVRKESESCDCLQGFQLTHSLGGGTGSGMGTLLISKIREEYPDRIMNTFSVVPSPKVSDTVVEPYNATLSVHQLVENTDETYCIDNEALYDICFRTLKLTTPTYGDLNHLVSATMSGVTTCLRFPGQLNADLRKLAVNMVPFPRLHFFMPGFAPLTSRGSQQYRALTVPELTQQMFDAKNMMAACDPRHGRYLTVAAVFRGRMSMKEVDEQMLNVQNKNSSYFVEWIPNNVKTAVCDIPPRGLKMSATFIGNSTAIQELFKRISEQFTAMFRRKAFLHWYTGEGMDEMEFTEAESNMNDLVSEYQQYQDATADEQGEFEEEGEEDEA
Protocol: The in-vitro testing of the tubulin polymerization influence was performed as follows:
The buffer system used had the following composition: 20 mmol of PIPES (1,4-piperazine-diethane-sulfonic acid, pKa 6.8), 80 mmol of NaCl, 0.5 mmol of MgCl2, 1 mmol of EGTA (ethylene glycol-bis-(2-aminoethylene)-tetraacetic acid).
For active ingredient testing, protein concentrations of 1 mg/ml (about 10^−5 mmol of tubulin) were used. The determination of protein was carried out according to the Lowry Method (Lowry et al. J. Biol. Chem. 1951, 193, 265-75) with bovine serum albumin as a standard. The assembling of microtubuli was carried out in the presence of 0.25 mmol of GTP and heating the samples to 37° C.
The microtubulus formation was examined by means of turbidimetry at a wavelength of 340 nm.
Testing of the active ingredients was carried out by their addition at the beginning of the assembling or in the state of equilibrium. Deviations of turbidity curves from the control characterize its activity. To monitor action and to evaluate the measured turbidity values, a transmission electron microscopic study (CEM 902 A, Zeiss/Oberkochen) of the assemblates was always performed after negative staining with 1% aqueous uranyl acetate.

[2] = test system: NCl-H460 human non-small-cell lung cancer cells; assay: Inhibition of cell proliferation (crystal violet), NCl-H460; type: cell-based; details: NCl-H460, 4 days incubation
Protocol: (§1) Cell cultures of the following cell lines were prepared in 96-well microtiter plates: • 1. MaTu/ADR multidrug-resistant human breast tumor cells (Epo GmbH Berlin), 5000 cells/well. • 2. HCT116 human colon tumor cells (ATCC CCL-247), 3000 cells/well. • 3. NCl-H460 human non-small-cell lung cancer cells (ATCC HTB-177), 3000 cells/well. • 4. DU145 human prostate tumor cells (ATCC HTB-81), 5000 cells/well. • 5. HMVEC human primary dermal microvascular endothelial cells, 7500 cells/well.
(§2) After 24 hours of incubation in a cell culture incubator at 37° C., the cells of a microtiter plate were stained with crystal violet (reference plate), while the cells in the test plates were incubated for 4 days with the test substances in the concentrations […], as well as with the DMSO solvent by itself (solvent control). The cell proliferation was determined by staining cells with crystal violet. The extinction of the crystal violet was determined by photometry at 595 nm. The percentage of the change in the cell number in the test plates was determined after the extinction values were normalized to the reference plate (0%) and to the solvent control (100%). The semi-maximal inhibition of the cell growth (IC50) was determined as the substance concentration, in which 50% of the cell number of the solvent controls were present.

[3] = test system: HCT116 human colon tumor cells; assay: Inhibition of cell proliferation (crystal violet), HCT116; type: cell-based; details: HCT116, 4 days incubation
Protocol: as §1, §2

[4] = test system: DU145 human prostate tumor cells; assay: Inhibition of cell proliferation (crystal violet), DU145; type: cell-based; details: DU145, 4 days incubation
Protocol: as §1, §2

[5] = test system: MaTu/ADR multidrug-resistant human breast tumor cells; assay: Inhibition of cell proliferation (crystal violet), MaTu/ADR; type: cell-based; details: 4 days incubation
Protocol: as §1, §2

[6] = test system: HMVEC human primary dermal microvascular endothelial cells; assay: Inhibition of cell proliferation (crystal violet), HMVEC; type: cell-based; details: 4 days incubation
Protocol: as §1, §2

SMILES	IC50 [2] [nM]	IC50 [3] [nM]	IC50 [4] [nM]	IC50 [5] [nM]	IC50 [1] [nM]	IC50 ([2]; Homo sapiens, 96 h) [nM]	IC50 ([3]; Homo sapiens, HCT-116, 96 h) [nM]	IC50 ([4]; Homo sapiens, DU-145, 96 h) [nM]	IC50 ([5]; Homo sapiens, 96 h) [nM]	IC50 ([6]; Homo sapiens, 96 h) [nM]	IC50 [6] [nM]
CC[C@]12CC[C@@H]3c4cc(OC)c(OS(N)(=O)=O)cc4CC[C@H]3[C@@H]1CC[C@@H]2O [(1), 17β-Hydroxy-2-methoxy-18a-homoestra-1,3,5(10)-trien-3-yl sulfamate]	–	–	–	–	500	< 100	< 100	150	< 100	< 100	–
COc1cc2c(cc1O)CC[C@@H]1[C@@H]2CC[C@]2(C)[C@@H](O)CC[C@@H]12 [2-Methoxyestradiol, reference compound]	1800	1100	1900	200	2700	–	–	–	–	–	2200
CCOc1cc2c(cc1OS(N)(=O)=O)CC[C@@H]1[C@@H]2CC[C@]2(CC)[C@@H](O)CC[C@@H]12 [(2), 2-Ethoxy-17β-hydroxy-18a-homoestra-1,3,5(10)trien-3-yl sulfamate]	300	400	900	100	–	–	–	–	–	–	500
CC[C@@]12CCC[C@H]1[C@@H]1CCc3cc(OS(N)(=O)=O)c(OC)cc3[C@H]1CC2 [(4), 2-Methoxy-18a-homoestra-1,3,5(10)-trien-3-yl sulfamate]	–	–	–	–	1800	500	600	600	450	600	–
CC(=O)O[C@H]1C(=O)[C@@]2(C)[C@H]([C@H](OC(=O)c3ccccc3)[C@]3(O)C[C@H](OC(=O)[C@H](O)[C@@H](NC(=O)c4ccccc4)c4ccccc4)C(C)=C1C3(C)C)[C@]1(OC(C)=O)CO[C@@H]1C[C@@H]2O [Taxol, reference compound]	–	–	–	–	–	4	4	4	400	4	–

Now from value to compound, other results behind:

IC50 [2] [nM]	IC50 [3] [nM]	IC50 [4] [nM]	IC50 [5] [nM]	SMILES	IC50 [1] [nM]	IC50 ([2]; Homo sapiens, 96 h) [nM]	IC50 ([3]; Homo sapiens, HCT-116, 96 h) [nM]	IC50 ([4]; Homo sapiens, DU-145, 96 h) [nM]	IC50 ([5]; Homo sapiens, 96 h) [nM]	IC50 ([6]; Homo sapiens, 96 h) [nM]	IC50 [6] [nM]
130	< 100	190	< 100	CC[C@]12CC[C@@H]3c4cc(OC)c(OS(N)(=O)=O)cc4CC[C@H]3[C@@H]1CC[C@@H]2OC [(5), 2,17β-Dimethoxy-18a-homoestra-1,3,5(10)-trien-3-yl Sulfamate]	–	–	–	–	–	–	< 100
180	180	180	100	CCc1cc2c(cc1OS(N)(=O)=O)CC[C@@H]1[C@@H]2CC[C@]2(CC)[C@@H](OS(N)(=O)=O)CC[C@@H]12 [(6), 2-Ethyl-18a-homoestra-1,3,5(10)-triene-3,17β-diyl Sulfamate]	–	–	–	–	–	–	< 100
